Laboratory results reported in patent US10590085B2, “Heterocyclic amides as kinase inhibitors” (GlaxoSmithKline Intellectual Property Development Limited, priority 2015, dated 2020).

Assays:
[1] = tested on: mouse L929 fibrosarcoma cells; assay: necroptosis assay in L929 cells; format: cell-based; conditions: viability by cellular ATP (Cell Titer-Glo), read-out: mean pIC50, inhibition of necrosis in L929 cells (converted)
Description: (§1) The efficacy of RIP1 inhibitors can be tested […] in vitro using a human monocytic leukemia U937 or mouse L929 fibrosarcoma cells in a necroptosis assay. As determined using the method described in He, S. et al. 2009. Cell 137(6):1100-1111 and International Patent Appln. No. PCT/IB2014/059004, now, International Patent Appln. Pub.
(§2) Viability was measured by quantitating cellular levels of ATP using the Cell Titer-Glo kit. All data are means±standard deviation of the mean.

RIP1 kinase = molecular target: T1, RIP1 kinase (Homo sapiens, UniProt Q13546); assay: fluorescent polarization based binding assay; conditions: mean value, minimum of 2 experiments
T1 sequence (Q13546 1-375 limits assumed): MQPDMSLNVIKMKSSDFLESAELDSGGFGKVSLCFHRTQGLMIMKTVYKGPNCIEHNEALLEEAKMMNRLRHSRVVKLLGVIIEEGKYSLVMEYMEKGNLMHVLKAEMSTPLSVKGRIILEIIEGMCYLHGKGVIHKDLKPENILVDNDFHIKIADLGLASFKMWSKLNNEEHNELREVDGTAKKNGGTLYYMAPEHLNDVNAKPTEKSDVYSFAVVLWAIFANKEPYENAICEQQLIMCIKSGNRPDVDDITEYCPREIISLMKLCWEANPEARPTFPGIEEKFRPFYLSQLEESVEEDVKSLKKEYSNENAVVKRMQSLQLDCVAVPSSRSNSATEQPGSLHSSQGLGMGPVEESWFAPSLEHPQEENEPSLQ
Excerpt: A fluorescent polarization based binding assay was used to asses the activity of the compounds of this invention, the details of which are disclosed in International Patent Appln. No. PCT/IB2014/059004, now, International Patent Appln. Pub.

[2] = tested on: human monocytic leukemia U937 cells; assay: necroptosis assay in U937 cells; format: cell-based; conditions: viability by cellular ATP (Cell Titer-Glo); for IC50: Homo sapiens, U-937, U937 cells, read-out: mean pIC50, inhibition of necrosis in U937 cells (converted)
Description: as §1, §2

[3] = tested on: TNF/zVAD induced temperature loss in mice; assay: TNF-driven systemic inflammatory response syndrome model using TNF plus zVAD (temperature loss); format: in vivo, mouse; conditions: pre-dosed 15 minutes before i.v. mouse TNF and zVAD

Row | IC50 (RIP1 kinase) | SMILES | IC50 [1] | IC50 [2] | further results
1 | ~39.8 nM | O=C(C1CCN(c2ccc(F)cn2)CC1)N1N=CCC1c1ccccc1 (centres unmarked) [Example 2, (1-(5-fluoropyridin-2-yl)-piperidin-4-yl)(5-phenyl-4,5-dihydro-1H-pyrazol-1-yl)methanone] | ~200 nM |  | 
2 | 1 to 10 nM | O=C(C1CCN(c2ccc(F)cn2)CC1)N1N=CC[C@H]1c1ccccc1 [Example 3, (S)-(1-(5-fluoropyridin-2-yl)piperidin-4-yl)(5-phenyl-4,5-dihydro-1H-pyrazol-1-yl)methanone] |  | 1 to 100 nM | 
3 | 1 to 10 nM | O=C(C1CCN(c2ncc(F)cn2)CC1)N1N=CC[C@H]1c1ccccc1 [Example 7, (S)-(1-(5-fluoropyrimidin-2-yl)piperidin-4-yl)(5-phenyl-4,5-dihydro-1H-pyrazol-1-yl)methanone] |  | 1 to 100 nM | 
4 | ~31.6 nM | O=C(C1CCN(c2ncccn2)CC1)N1N=CCC1c1cncc(F)c1 (centres unmarked) [Example 11, (5-(5-fluoropyridin-3-yl)-4,5-dihydro-1H-pyrazol-1-yl)(1-(pyrimidin-2-yl)-piperidin-4-yl)methanone] |  |  | 
5 | ~501 nM | CC(=O)N1CCC(C(=O)N2N=CCC2c2ccc3c(c2)OCO3)CC1 (centres unmarked) [Example 12, 1-(4-(5-(benzo[d][1,3]-dioxol-5-yl)-4,5-dihydro-1H-pyrazole-1-carbonyl)-piperidin-1-yl)ethanone] |  |  | 
6 | ~79.4 nM | CC(C)(C)C(=O)N1N=CC[C@H]1c1cncc(F)c1 [Example 15, (S)-1-(5-(5-fluoro-pyridin-3-yl)-4,5-dihydro-1H-pyrazol-1-yl)-2,2-dimethyl-propan-1-one] | ~20 nM |  | mean pIC50, inhibition of necrosis in U937 cells [2]: ~7.2
7 | ~126 nM | Cc1ccc(C(=O)N2N=CCC2c2ccccc2)cc1 (centres unmarked) [Example 17, (5-phenyl-4,5-dihydro-1H-pyrazol-1-yl)(p-tolyl)-methanone] |  | ~631 nM | 
8 | ~31.6 nM | O=C(C1CCN(c2ncccn2)CC1)N1N=CC[C@H]1c1cccnc1 [Example 32, (S)-(5-(pyridin-3-yl)-4,5-dihydro-1H-pyrazol-1-yl)(1-(pyrimidin-2-yl)-piperidin-4-yl)-methanone] |  | ~158 nM | 
9 | ~50.1 nM | CC(C)(C)C(=O)N1N=CC[C@H]1c1ccc(Cl)c(Cl)c1 [Example 40, (S)-1-(5-(3,4-dichlorophenyl)-4,5-dihydro-1H-pyrazol-1-yl)-2,2-dimethyl-propan-1-one] | ~15.8 nM |  | 
10 |  | CC(C)(C)C(=O)N1N=CC[C@H]1c1cccc(Cl)c1 [Example 44, (S)-1-(5-(3-chlorophenyl)-4,5-dihydro-1H-pyrazol-1-yl)-2,2-dimethyl propan-1-one] | ~39.8 nM |  | 
11 | ~631 nM | Cc1ccc([C@@H]2CC=NN2C(=O)C(C)(C)C)cn1 [Example 50, (S)-2,2-dimethyl-1-(5-(6-methylpyridin-3-yl)-4,5-dihydro-1H-pyrazol-1-yl)propan-1-one] | ~20 nM | ~158 nM | 
12 |  | CC(C)(C)C(=O)N1N=CC[C@H]1C1CCCCC1 [Example 56, (S)-1-(5-cyclohexyl-4,5-dihydro-1H-pyrazol-1-yl)-2,2-dimethylpropan-1-one] | ~50.1 nM |  | 
13 | ~79.4 nM | CC(C)(C)C(=O)N1N=CC[C@H]1c1ccc(C(F)(F)F)cc1 [Example 62, (S)-2,2-dimethyl-1-(5-(4-(trifluoromethyl)-phenyl)-4,5-dihydro-1H-pyrazol-1-yl)propan-1-one] |  |  | mean pIC50, inhibition of necrosis in U937 cells [2]: ~7.2
14 |  | CC(C)(C)C(=O)N1N=CC[C@H]1c1cccc(F)c1 [Example 68, (S)-1-(5-(3-fluorophenyl)-4,5-dihydro-1H-pyrazol-1-yl)-2,2-dimethyl-propan-1-one 2,2,2-trifluoroacetate] | ~5.01 nM |  | 
15 | ~398 nM | O=C(C1CCN(c2ccccn2)CC1)N1N=CC[C@H]1c1cccnc1 [Example 70, (S)-(1-(pyridin-2-yl)piperidin-4-yl) (5-(pyridin-3-yl)-4,5-dihydro-1H-pyrazol-1-yl)-methanone] |  |  | 
16 | ~251 nM | CC(C)(C)C(=O)N1N=CC[C@H]1c1ccc2[nH]ccc2c1 [Example 91, (S)-1-(5-(1H-indol-5-yl)-4,5-dihydro-1H-pyrazol-1-yl)-2,2-dimethylpropan-1-one] | ~251 nM | ~100 nM | 

Row | IC50 (RIP1 kinase) | SMILES | IC50 [1] | IC50 [2] | further results
17 | ~100 nM | CC(C)(C)C(=O)N1N=CC[C@H]1c1cccc2[nH]ccc12 [Example 93, (S)-1-(5-(1H-indol-4-yl)-4,5-dihydro-1H-pyrazol-1-yl)-2,2-dimethylpropan-1-one] | ~79.4 nM |  | mean pIC50, inhibition of necrosis in U937 cells [2]: ~7.0
18 |  | O=C(c1cnsn1)N1CCC(C(=O)N2N=CCC2c2ccccc2)CC1 (centres unmarked) [Example 155, (1-(1,2,5-thiadiazole-3-carbonyl)piperidin-4-yl)(5-phenyl-4,5-dihydro-1H-pyrazol-1-yl)methanone] |  | 1 to 100 nM | % Inhibition ([3]; 10 mg/kg PO): 49%
19 |  | Cc1ocnc1C(=O)N1CCC(C(=O)N2N=CCC2c2ccccc2)CC1 (centres unmarked) [Example 158, (5-methyloxazol-4-yl)(4-(5-phenyl-4,5-dihydro-1H-pyrazole-1-carbonyl)piperidin-1-yl)methanone] |  | 1 to 100 nM | % Inhibition ([3]; 10 mg/kg PO): 77%
20 |  | O=C(C1CCN(c2ncccn2)CC1)N1N=CC[C@H]1c1ccccc1 [Example 172, (S)-(5-phenyl-4,5-dihydro-1H-pyrazol-1-yl)(1-(pyrimidin-2-yl)piperidin-4-yl)methanone] | ~631 nM |  | 
21 |  | O=C(C1CCN(c2ccccn2)CC1)N1N=CCC1c1ccccc1 (centres unmarked) [Example 176, (5-phenyl-4,5-dihydro-1H-pyrazol-1-yl)(1-(pyridin-2-yl)piperidin-4-yl)methanonc 2,2,2-trifluoroacctate] |  | 1 to 100 nM | 
22 |  | O=C(C1CCN(c2ccccn2)CC1)N1N=CC[C@H]1c1ccccc1 [Example 177, (S)-(5-phenyl-4,5-dihydro-1H-pyrazol-1-yl)(1-(pyridin-2-yl)piperidin-4-yl)methanone] |  | 1 to 100 nM | 
23 |  | O=C(C1CCN(c2ccc(C(F)(F)F)cn2)CC1)N1N=CCC1c1ccccc1 (centres unmarked) [Example 179, (5-phenyl-4,5-dihydro-1H-pyrazol-1-yl)(1-(5-(trifluoromethyl)pyridin-2-yl)piperidin-4-yl)methanone 2,2,2-trifluoroacetate] |  | 1 to 100 nM | 
24 |  | O=C(C1CCN(c2nc3ccccc3o2)CC1)N1N=CCC1c1ccccc1 (centres unmarked) [Example 180, (1-(benzo[d]oxazol-2-yl)piperidin-4-yl)(5-phenyl-4,5-dihydro-1H-pyrazol-1-yl)methanone 2,2,2-trifluoroacetate] |  | 1 to 100 nM | 
25 |  | O=C(C1CCN(c2ncc(F)cn2)CC1)N1N=CCC1c1ccc2c(c1)CCC2 (centres unmarked) [Example 184, (5-(2.3-dihydro-1H-inden-5-yl)-4,5-dihvdro-1H-pyrazol-1-yl)(1-(5-fluoropyrimidin-2-yl)piperidin-4-yl)methanone] |  | 1 to 100 nM | 
26 |  | O=C(C1CCN(c2ncc(F)cn2)CC1)N1N=CCC1c1ccc(OC(F)F)cc1 (stereo not drawn) [Example 185, (5-(4-(difluoromethoxy)phenyl)-4,5-dihydro-1H-pyrazol-1-yl)(l-(5-fluoropyrimidin-2-yl)piperidin-4-yl)methanone] |  | 1 to 100 nM | 
27 |  | Cc1ccc(C2CC=NN2C(=O)C2CCN(c3ncc(F)cn3)CC2)cn1 (centres unmarked) [Example 187, (1-(5-fluoropyrimidin-2-yl)piperidin-4-yl)(5-(6-methylpyridin-3-yl)-4,5-dihydro-1H-pyrazol-1-yl)methanone] |  | 1 to 100 nM | 
28 |  | N#Cc1ccc(C2CC=NN2C(=O)C2CCN(c3ncc(F)cn3)CC2)cc1 (centres unmarked) [Example 188, 4-(1-(1-(5-fluoropyrimidin-2-yl)piperidine-4-carbonyl)-4,5-dihydro-1H-pyrazol-5-yl)benzonitrile] |  | 1 to 100 nM | 
29 | 1 to 10 nM | O=C(N1N=CCC1c1ccccc1)C1(F)CCN(c2ncc(F)cn2)CC1 (centres unmarked) [Example 189, (4-fluoro-1-(5-fluoropyrimidin-2-yl)piperidin-4-yl)(5-phenyl-4,5-dihydro-1H-pyrazol-1-yl)methanone] |  | 1 to 100 nM | 
30 |  | CC1(C(=O)N2N=CCC2c2ccccc2)CCN(c2ncc(F)cn2)CC1 (centres unmarked) [Example 190, (1-(5-fluoropyrimidin-2-yl)-4-methylpiperidin-4-yl)(5-phenyl-4,5-dihydro-1H-pyrazol-1-yl)methanone] |  | 1 to 100 nM | 
31 |  | CC(=O)N1CCC(C(=O)N2N=CCC2c2ccccc2)CC1 (centres unmarked) [Example 193, 1-(4-(5-phenyl-4,5-dihydro-1H-pyrazole-1-carbonyl)piperidin-1-yl)ethanone] |  |  | % Inhibition ([3]; 140 mg/kg PO): 94%
32 |  | O=C(c1cccnc1)N1N=CCC1c1ccccc1 (centres unmarked) [Example 209] |  | ~2000 nM | 
